Test [1] deals with T1, human ALK5 (Homo sapiens, UniProt P36897).
T1 sequence (P36897 162-503): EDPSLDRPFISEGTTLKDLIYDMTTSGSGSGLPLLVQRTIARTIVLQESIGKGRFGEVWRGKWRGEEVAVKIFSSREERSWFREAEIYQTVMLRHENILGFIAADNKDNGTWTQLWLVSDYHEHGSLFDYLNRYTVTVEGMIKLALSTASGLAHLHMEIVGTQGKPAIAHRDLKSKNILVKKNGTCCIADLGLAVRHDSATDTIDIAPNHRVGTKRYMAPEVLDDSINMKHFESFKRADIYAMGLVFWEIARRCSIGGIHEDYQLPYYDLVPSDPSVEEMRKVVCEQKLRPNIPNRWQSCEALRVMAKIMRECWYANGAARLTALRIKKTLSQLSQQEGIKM
Briefly: ALK5 Enzyme Assay 1. Also noted: 6His tagged ALK5 protein (amino acids 162-503) expressed in insect cells; 6His; made in house; host or cells: insect cells. The test is classed as biochemical. On the procedure: This assay measures the ability of a compound to bind to and inhibit the activity of ALK5 protein in vitro. […] Assay measurements were performed in assay buffer comprising 60 mM HEPES pH 7.4, 3 mM MgCl2, 3 mM MnCl2, 3 μM Na orthovanadate, 1.2 mM DTT and 0.05% PEG2000. […] Reactions were performed in the presence of 200 μg/mL casein (Sigma-Aldrich C4765-10ML), 200 ng/mL ALK5, 0.5 μM ATP (Sigma-Aldrich A7699), 1 μCi/mL γ-33P ATP. Following addition of casein, ATP and compound, reactions were initiated by adding ALK5 enzyme and reactions run for 90 minutes. After incubation reactions were terminated by addition of 20 μL per well of 50% orthophosphoric acid. 20 minutes after addition of 70% v/v TCA, precipitated protein was transferred to GF/C 96 well plates using a Tomtec harvester with 1.5% orthophosphoric acid. […] All reactions were performed under linear kinetics.

Test [2] addresses T1, human ALK5. Briefly: ALK5 Enzyme Assay 2 (fluorescence polarisation probe displacement). It is filed as binding. Also noted: 6His tagged human ALK5 (residues162-503) was grown and purified from insect cells; 6His; made in house; host or cells: insect cells. A digest of the protocol:
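Recombinant ALK5 (3 μg/mL) incubated with test compound in 50 mM HEPES pH7.4, 10 mM MgCl2, 1 mM DTT, 0.01% CHAPS. Displacement of a fluorescent quinazoline-based ALK5 probe (50 nM final) in presence of 1 μM ATP read by fluorescence polarisation.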
(In general: Polarisation of emitted light reports the rotation of a fluorescent probe.)

Setting [3] is: read-out: EAA: activity (μM) using Enzyme Assay 1.
The mark [4] stands for this setting: read-out: EAA2: activity (μM) using Enzyme Assay 2.

For `Cc1cc(Oc2ccnc(Nc3ccc(C(=O)N(C)C)cc3)c2)c(-c2ccccn2)nc1C` [Example 27, 4-{[4-(5,6-Dimethyl-2-pyridin-2-yl-pyridin-3-yl)oxypyridin-2-yl]-amino}-N,N-dimethyl-benzamide], the figures for the IC50 in test [1] (setting [3]) and in test [2] (setting [4]) were 0.00706 µM and 0.0124 µM, respectively.
Taken in the same sequence, the figures for `COc1cc(Nc2cc(Oc3ccc(C)nc3-c3ccccc3)ccn2)cc(OC)c1OC` [Example 45, 4-(6-Methyl-2-phenyl-pyridin-3-yl)oxy-N-(3,4,5-trimethoxy-phenyl)pyridin-2-amine] were 0.00537 µM and 0.00799 µM.
The like results for `Cc1cc(Oc2ccnc(Nc3cc(N4CCOCC4)cc(N4CCOCC4)c3)c2)c(-c2ccccn2)nc1C` [Example 21, 4-(5,6-Dimethyl-2-pyridin-2-yl-pyridin-3-yl)oxy-N-(3,5-dimorpholin-4-ylphenyl)pyridin-2-amine] were, in that order, 0.0772 µM and 0.125 µM.
Consider `COc1cc(Nc2cc(Oc3ccc(C)nc3)ccn2)cc(OC)c1OC` [Example 8, 4-(6-Methylpyridin-3-yl)oxy-N-(3,4,5-trimethoxyphenyl)-pyridin-2-amine], for which the IC50 in test [1] (setting [3]) was 0.174 µM; in test [2] (setting [4]), 0.294 µM.
The like results for `COc1cc(Nc2cc(Oc3cccnc3Cl)ccn2)cc(OC)c1OC` [Example 53, 4-(2-Chloropyridin-3-yl)oxy-N-(3,4,5-trimethoxyphenyl)pyridin-2-amine] were, in that order, 0.481 µM and 0.249 µM.
Regarding `Cc1cc(Oc2ccnc(Nc3cccc(Cl)c3)c2)c(-c2ccccn2)nc1C` [Example 12, N-(3-Chlorophenyl)-4-(5,6-dimethyl-2-pyridin-2-yl-pyridin-3-yl)-oxy-pyridin-2-amine], the IC50 is 0.0073 µM in test [1] (setting [3]) and 0.0418 µM in test [2] (setting [4]).
The like results for `COc1cc(Nc2cc(Oc3ccc(C)nc3-c3cccc(Cl)c3)ccn2)cc(OC)c1OC` [Example 55, 4-[2-(3-Chlorophenyl)-6-methyl-pyridin-3-yl]oxy-N-(3,4,5-trimethoxyphenyl)-pyridin-2-amine] were, in that order, 0.00929 µM and 0.0346 µM.
As to `COc1ccccc1Nc1cc(Oc2cc(C)c(C)nc2-c2ccccn2)ccn1` [Example 19, 4-(5,6-Dimethyl-2-pyridin-2-yl-pyridin-3-y1)oxy-N-(2-methoxy-phenyl)-pyridin-2-amine], the results for the IC50 in test [1] (EAA: activity (μM) using Enzyme Assay 1) and in test [2] were 0.0128 µM and 0.00216 µM, respectively.
Turning to `Cc1cc(Oc2ccnc(Nc3ccc4[nH]ccc4c3)c2)c(-c2ccccn2)nc1C` [Example 35, N-[4-(5,6-Dimethyl-2-pyridin-2-yl-pyridin-3-yl)-oxypyridin-2-yl]-1H-indol-5-amine], the IC50 in test [1] (setting [3]) amounted to 0.205 µM; in test [2] (setting [4]), 0.463 µM.
Take `COc1cc(Nc2cc(Oc3ccc(C)nc3-c3cnn(C)c3)ccn2)cc(OC)c1OC` [Example 5, 4-[6-Methyl-2-(1-methylpyrazol-4-yl)pyridin-3-yl]oxy-N-(3,4,5-trimethoxy-phenyl)pyridin-2-amine]: the values for the IC50 in test [1] (setting [3]) and in test [2] (setting [4]) were 0.0153 µM and 0.0169 µM, respectively.
On to `COc1cc(Nc2cc(Oc3cccnc3)ccn2)cc(OC)c1OC` [Example 6, 4-Pyridin-3-yloxy-N-(3,4,5-trimethoxyphenyl)pyridin-2-amine], for which the IC50 in test [1] (setting [3]) was 5.5 µM; in test [2] (setting [4]), 1.97 µM.
As to `Cc1cc(Oc2ccnc(Nc3ccc(F)cc3F)c2)c(-c2ccccn2)nc1C` [Example 37, N-(2,4-Difluorophenyl)-4-(5,6-dimethyl-2-pyridin-2-yl-pyridin-3-yl)oxy-pyridin-2-amine], the IC50 was 0.036 µM in test [1] (setting [3]) and 0.0216 µM in test [2] (setting [4]).
Taken in the same sequence, the figures for `COc1cc(Nc2cc(Oc3ccc(C)nc3-c3cccc(F)c3)ccn2)cc(OC)c1OC` [Example 56, 4-[2-(3-Fluoro-phenyl)-6-methyl-pyridin-3-yl]oxy-N-(3,4,5-trimethoxy-phenyl)pyridin-2-amine] were 0.00379 µM and 0.0795 µM.
Turning to `Cc1ccc(Oc2ccnc(Nc3ccc(S(N)(=O)=O)cc3)c2)c(-c2ccccn2)n1` [Example 43, 4-{[4-(6-Methyl-2-pyridin-2-yl-pyridin-3-yl)oxypyridin-2-yl]-amino}benzene-sulfonamide], the IC50 in test [1] (setting [3]) was determined as 0.0162 µM; in test [2] (setting [4]) it was 0.00728 µM.
Take `Cc1cc(Oc2ccnc(Nc3ccc(N4CCN(C)CC4)cc3)c2)c(-c2ccccn2)nc1C` [Example 20, 4-(5,6-Dimethyl-2-pyridin-2-yl-pyridin-3-yl)oxy-N-[4-(4-methyl-piperazin-1-yl)phenyl]pyridin-2-amine]: the IC50 in test [1] (setting [3]) was found to be 0.0104 µM; in test [2] (setting [4]), 0.0166 µM.
The like results for `Cc1cc(Oc2ccnc(Nc3ccc(F)cc3)c2)c(-c2ccccn2)nc1C` [Example 10, 4-(5,6-Dimethyl-2-pyridin-2-yl-pyridin-3-yl)oxy-N-(4-fluorophenyl)pyridin-2-amine] were, in that order, 0.017 µM and 0.0883 µM.
Taken in the same sequence, the figures for `Cc1cc(Oc2ccnc(Nc3ccc(C#N)cc3)c2)c(-c2ccccn2)nc1C` [Example 34, 4-{[4-(5,6-Dimethyl-2-pyridin-2-yl-pyridin-3-yl)-oxypyridin-2-yl]amino}benzonitrile] were 0.0215 µM and 0.0255 µM.
The like results for `Cc1cc(Oc2ccnc(Nc3ccc(S(N)(=O)=O)cc3)c2)c(-c2ccccn2)nc1C` [Example 26, 4-{[4-(5,6-Dimethyl-2-pyridin-2-yl-pyridin-3-yl)oxypyridin-2-yl]-amino}benzenesulfonamide] were, in that order, 0.0219 µM and 0.0124 µM.
As to `CC(=O)Nc1cc(Nc2cc(Oc3cc(C)c(C)nc3-c3ccccn3)ccn2)ccc1C` [Example 16, N-(5-{[4-(5,6-Dimethyl-2-pyridin-2-yl-pyridin-3-yl)oxypyridin-2-yl]amino}-2-methyl-phenyl)acetamide], the IC50 came out at 0.0128 µM in test [1] (setting [3]) and 0.00602 µM in test [2] (setting [4]).
With `Cc1cc(Oc2ccnc(Nc3ccc(CO)cc3)c2)c(-c2ccccn2)nc1C` [Example 33, (4-{[4-(5,6-Dimethyl-2-pyridin-2-yl-pyridin-3-yl)-oxypyridin-2-yl]amino}phenyl)methanol], the IC50 in test [1] (setting [3]) stood at 0.0172 µM; in test [2] (setting [4]) it was 0.0167 µM.
Taken in the same sequence, the figures for `COc1cc(Nc2cc(Oc3cccnc3-c3ccc(NC(C)=O)cc3)ccn2)cc(OC)c1OC` [Example 51, N-[4-(3-{2-[(3,4,5-Trimethoxyphenyl)amino]pyridin-4-yl}-oxypyridin-2-yl)phenyl]acetamide] were 0.23 µM and 0.0274 µM.
The like results for `CCc1ccc(Oc2ccnc(Nc3ccc(S(N)(=O)=O)cc3)c2)c(-c2ccccn2)n1` [Example 44, 4-{[4-(6-Ethyl-2-pyridin-2-yl-pyridin-3-yl)oxypyridin-2-yl]-amino}benzene-sulfonamide] were, in that order, 0.0161 µM and 0.0165 µM.
With `Cc1cc(Oc2ccnc(Nc3cc(F)ccc3F)c2)c(-c2ccccn2)nc1C` [Example 31, N-(2,5-Difluorophenyl)-4-(5,6-dimethyl-2-pyridin-2-yl-pyridin-3-yl)-oxy-pyridin-2-amine], the values for the IC50 in test [1] (setting [3]) and in test [2] (setting [4]) were 0.0274 µM and 0.0312 µM, respectively.
The like results for `COc1cc(Nc2cc(Oc3ccc(C)nc3-c3cscc3C)ccn2)cc(OC)c1OC` [Example 46, 4-[6-Methyl-2-(4-methylthiophen-3-yl)pyridin-3-yl]oxy-N-(3,4,5-trimethoxyphenyl)pyridin-2-amine] were, in that order, 0.0153 µM and 0.0175 µM.
The like results for `CCc1ccc(Oc2ccnc(Nc3cc(OC)c(OC)c(OC)c3)c2)c(-c2cccc(C)n2)n1` [Example 3, 4-[6-Ethyl-2-(6-methylpyridin-2-yl)pyridin-3-yl]oxy-N-(3,4,5-trimethoxy-phenyl)pyridin-2-amine] were, in that order, 0.0274 µM and 0.0459 µM.
Consider `Cc1cc(Oc2ccnc(Nc3cccc(CO)c3)c2)c(-c2ccccn2)nc1C` [Example 38, (3-{[4-(5,6-Dimethyl-2-pyridin-2-yl-pyridin-3-yl)-oxypyridin-2-yl]amino}phenyl)methanol], for which the figures for the IC50 in test [1] (setting [3]) and in test [2] (setting [4]) were 0.00977 µM and 0.00378 µM, respectively.
Taken in the same sequence, the figures for `COc1cc(Nc2cc(Oc3cc(C)c(C)nc3-c3nc(C)c(C)s3)ccn2)cc(OC)c1OC` [Example 4, {4-[2-(4,5-Dimethyl-thiazol-2-yl)-5,6-dimethyl-pyridin-3-yloxy]-pyridin-2-yl}-(3,4,5-trimethoxy-phenyl)-amine] were 0.00951 µM and 0.056 µM.
